This is an account of results in patent US20220281918A1, “PBP BINDING BICYCLIC PEPTIDE LIGANDS” (BicycleTx Limited, priority 2019, published 2022).

One may read the Kd as the constant that tells how readily two partners part at equilibrium. Low values mean higher affinity, high ones lower affinity. In general, Ki refers to the equilibrium dissociation constant of an inhibitor or competing ligand from its target. A high value points to weaker binding. For orientation: MIC means the lowest concentration that inhibits growth of the organism.

The target in experiment [1] is T1, PBP3 of E. coli (Escherichia coli, UniProt P0AD68). The experiment is described as follows: Fluorescence polarisation direct binding assay, PBP 3. The settings on record: PBP Tested 3 (E. coli); fluorescent ligand. As for the experimental part:
Fluorescence polarisation was carried out using fluorescein-labelled peptides with unmodified PBP protein and measured using a PHERAstar FS by BMG Labtech fitted with a FP 485 520 520 optic module.
Fluorescent peptides at 10 mM in DMSO were diluted to 2.5 nM in binding buffer (10 mM HEPES, pH8, 300 mM NaCl, 2% glycerol). A two-fold dilution series of PBP protein was then prepared across 12 wells in binding buffer, with the highest concentration being 21 μM, and the lowest concentration being 17 nM.
10 μl diluted fluorescent peptide (2.5 nM) was added into 12 wells of a 384-Well NBS™ Low Volume Microplate (Fisher Scientific). 10 μl PBP dilution series was then added to the wells containing the fluorescent peptide, and 5 μl binding buffer was added to bring the total volume to 25 μl and the final concentration of peptide tracer to 1 nM. A control well lacking PBP protein was prepared with a final peptide concentration of 1 nM to a final volume of 25 μl in binding buffer. Fluorescence polarisation was measured every 5 minutes for a period of one hour at room temperature. The gain and focal height were optimised using the control well lacking protein. […]
Data were analysed in GraphPad software to derive values for the dissociation constant. […]
Of note, the direct binding values presented herein utilise a peptide ligand bound to a fluorescence tracer molecule.
A general note: In fluorescence polarisation assays a small probe gives low polarisation when free and higher when bound to something large.

For experiment [2], the target named is T1, PBP3 of E. coli. Nature of the experiment: Fluorescence polarisation competition binding assay Method 1 (BODIPY labelled penicillin tracer). The settings on record: competition with Bocillin (BODIPY-penicillin). The method, then:
Fluorescence polarisation competition was carried out using a BODIPY labelled Penicillin tracer and unlabelled peptides, for competition to an unmodified PBP protein. Polarisation was measured using a PHERAstar FS by BMG Labtech fitted with a FP 485 520 520 optic module.
Fluorescent BODIPY labelled penicillin at 5 mM in DMSO were diluted to 6.25 nM in binding buffer (10 mM HEPES, pH8, 300 mM NaCl, 2% glycerol). Unmodified PBP were diluted to 2 μM in binding buffer. A two-fold dilution series of unmodified peptide was prepared across 12 wells in binding buffer, with the highest final well concentration being 60 μM, and the lowest concentration being 50 nM. 5 μl of the unmodified peptide dilution series or Carbenicillin were added to 12 wells of a 384-Well NBS™ Low Volume Microplate (Fisher Scientific). 10 μl diluted fluorescent BODIPY labelled penicillin (6.25 nM) were then added to the 12 wells containing the unmodified peptide dilutions. […]
Fluorescence polarisation was measured every 5 minutes for a period of one hour at room temperature. […]
Data were analysed in GraphPad software to derive values for the inhibition constant. […]

Experiment [3] concerns E. coli (ATCC 25922). The experiment is described as follows: MIC assay (10 μl), E. coli ATCC 25922. The class given is cell-based. The conditions noted are these: Escherichia coli, ATCC25922. As for the experimental part:
(§1) Test compounds were dissolved at high concentration in the required solvent. Where DMSO was used to dissolve test compounds, a DMSO control with equivalent concentrations of DMSO was included for each test organism. For each test organism, a control antibiotic (for which susceptibility of the test organism was known) was tested in parallel. This allowed comparison of results between runs and validated the testing procedure and organism.
(§2) Using aseptic technique, serial 2-fold dilutions (across a 10 point range) of the test compounds were made in 5 μl of cation-adjusted Muller Hinton broth (CA-MHB), on the inverted lid of a 96-well plate. Inoculum for each test organism was made in phosphate-buffered saline (PBS) to match the turbidity of a 0.5 McFarland standard, and then diluted 100-fold. Each well (except negative control well) was inoculated with 5 μl of inoculum. For each test antibiotic, a negative control (no bacteria) was included, consisting of CA-MHB only; along with a positive control (no antibiotic) with CA-MHB and bacteria only. The base of the 96 well plate was used as a lid, and the plate was incubated inside a humidor to reduce evaporation. […] MIC was evaluated based on turbidity, using white light shone through the base of the plate to illuminate droplets.

In experiment [4] the test system is E. Coli GKCW101 (WT). Nature of the experiment: MIC assay, E. coli GKCW101. The settings on record: Escherichia coli. The class given is cell-based. As for the experimental part:
(§3) Minimum inhibitory concentration (MIC) assays were carried out using E. coli strains from the Zgurskaya lab engineered to harbour an inducible pore to make the outer membrane permeable (Krishnamoorthy et al. (2016) doi: https://doi.org/10.1128/AAC.01882-16). Strains used: GKCW101; GKCW102; GKCW103; and GKCW104.
(§4) Overnight cultures of bacteria were first prepared by transferring a single bacterial colony into 5 mL cation-adjusted Mueller-Hinton broth (CA-MHB) supplemented with kanamycin at 50 μg/mL. The following day, overnight cultures were diluted 1/100 in 25 mL CA-MHB with 50 μg/mL kanamycin and cultured until the optical density reached 0.3 as measured on a spectrometer at 600 nm.
(§5) Filter-sterilised arabinose was then added to a concentration of 0.1% w/v and subsequently cultured until the optical density at 600 nm equalled to 1.
(§6) The cultured medium was then diluted to 1×10^6 CFU mL^−1 in CA-MHB supplemented with 0.1% w/v arabinose and 50 μg/mL kanamycin. […]
(§7) A maximum 8 μl of peptide ligand was then added into the wells of column 1 and diluted two-fold across the plate. […] The optical density at 600 nm was then measured for each of the wells using a PheraStar FSx plate reader. MIC values were determined as the cutoff concentration between visible growth and no growth of the bacteria.

The subject of experiment [5] is E. Coli GKCW102 (WT-pore). Nature of the experiment: MIC assay, E. coli GKCW102. The class given is cell-based. The conditions noted are these: Escherichia coli. The method, then:
as §3, §4, §5, §6, §7

In experiment [6] the test system is E. Coli GKCW103 (ΔToIC). Nature of the experiment: MIC assay, E. coli GKCW103. The class given is cell-based. The settings on record: Escherichia coli. As for the experimental part:
as §3, §4, §5, §6, §7

Experiment [7] relates to S. typhimurium (ATCC 19585). The experiment is described as follows: MIC assay (10 μl), S. typhimurium. The class given is cell-based. The settings on record: Salmonella enterica. The method, then:
as §1, §2

Experiment [8] relates to E. cloacae (NCTC 13405). Nature of the experiment: MIC assay (10 μl), E. cloacae. The class given is cell-based. The settings on record: Enterobacter cloacae, NCTC13405. The method, then: as §1, §2
For experiment [9], the target named is T2, S. pneumoniae PBP1a (S. pneumoniae, UniProt Q04707 37-719, limits assumed).
T2 sequence (looked up): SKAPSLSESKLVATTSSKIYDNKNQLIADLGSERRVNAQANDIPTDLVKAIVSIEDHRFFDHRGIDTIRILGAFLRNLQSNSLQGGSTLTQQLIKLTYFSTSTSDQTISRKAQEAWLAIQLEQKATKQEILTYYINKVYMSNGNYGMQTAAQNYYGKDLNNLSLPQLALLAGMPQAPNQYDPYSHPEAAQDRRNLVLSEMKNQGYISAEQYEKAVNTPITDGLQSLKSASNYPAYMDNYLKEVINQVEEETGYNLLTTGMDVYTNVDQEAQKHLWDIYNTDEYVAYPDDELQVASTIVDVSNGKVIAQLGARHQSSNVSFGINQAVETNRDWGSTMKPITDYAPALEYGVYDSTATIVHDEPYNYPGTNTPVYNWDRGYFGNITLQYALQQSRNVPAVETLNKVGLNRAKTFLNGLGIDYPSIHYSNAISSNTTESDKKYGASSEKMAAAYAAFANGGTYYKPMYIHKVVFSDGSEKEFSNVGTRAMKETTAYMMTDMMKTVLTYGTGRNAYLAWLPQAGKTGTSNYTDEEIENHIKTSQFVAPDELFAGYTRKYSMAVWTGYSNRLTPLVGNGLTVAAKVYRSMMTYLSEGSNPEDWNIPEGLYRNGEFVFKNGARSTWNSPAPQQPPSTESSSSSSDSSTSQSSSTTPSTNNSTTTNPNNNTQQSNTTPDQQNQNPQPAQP
Nature of the experiment: fluorescence polarisation direct binding; fluorescein-labelled peptide, PBP titrated.

Experiment [10] has as its target T3, PBP3 of P. aeruginosa (P. aeruginosa, UniProt G3XD46 50-579, limits assumed).
T3 construct: also called P. aeruginosa PBP3
Described as above.

In experiment [11] the target is T4, PBP3 of E. coli (E. coli, UniProt P0AD68 57-577, limits assumed).
T4 construct: also called E. coli PBP3; FtsI
T4 sequence (looked up): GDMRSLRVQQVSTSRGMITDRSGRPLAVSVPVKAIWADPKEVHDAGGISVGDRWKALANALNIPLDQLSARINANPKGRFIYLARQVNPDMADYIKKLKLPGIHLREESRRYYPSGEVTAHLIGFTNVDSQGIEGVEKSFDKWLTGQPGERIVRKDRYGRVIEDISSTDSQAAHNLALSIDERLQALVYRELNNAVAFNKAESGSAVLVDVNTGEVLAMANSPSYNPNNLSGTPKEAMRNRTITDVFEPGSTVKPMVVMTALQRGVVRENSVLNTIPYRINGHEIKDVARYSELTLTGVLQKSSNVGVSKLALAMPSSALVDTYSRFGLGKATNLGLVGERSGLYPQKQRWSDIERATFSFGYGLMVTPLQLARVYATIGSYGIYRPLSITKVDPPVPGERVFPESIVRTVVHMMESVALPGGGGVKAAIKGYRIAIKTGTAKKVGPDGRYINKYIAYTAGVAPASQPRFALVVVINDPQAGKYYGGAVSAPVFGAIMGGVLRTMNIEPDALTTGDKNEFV
The experiment is described as above.

≈ marks a conversion by molar mass, not a printed value. Numbered stars: 1 amine (or outer) side, 2 acyl side, 3 side chain; on linkers, the order of the positions; unused ones are H or OH. Bridge positions count the residues as written; N and C are the ends. Square brackets hold non-standard residues; d marks the D form. Ends that are not written are not given here. TATA = O=C(CC[*:1])N1CN(C(=O)CC[*:2])CN(C(=O)CC[*:3])C1; fluorescein = label appended via Sar6-Lys linker; Sar = CNCC(=O)O

T1 sequence (P0AD68 1-577): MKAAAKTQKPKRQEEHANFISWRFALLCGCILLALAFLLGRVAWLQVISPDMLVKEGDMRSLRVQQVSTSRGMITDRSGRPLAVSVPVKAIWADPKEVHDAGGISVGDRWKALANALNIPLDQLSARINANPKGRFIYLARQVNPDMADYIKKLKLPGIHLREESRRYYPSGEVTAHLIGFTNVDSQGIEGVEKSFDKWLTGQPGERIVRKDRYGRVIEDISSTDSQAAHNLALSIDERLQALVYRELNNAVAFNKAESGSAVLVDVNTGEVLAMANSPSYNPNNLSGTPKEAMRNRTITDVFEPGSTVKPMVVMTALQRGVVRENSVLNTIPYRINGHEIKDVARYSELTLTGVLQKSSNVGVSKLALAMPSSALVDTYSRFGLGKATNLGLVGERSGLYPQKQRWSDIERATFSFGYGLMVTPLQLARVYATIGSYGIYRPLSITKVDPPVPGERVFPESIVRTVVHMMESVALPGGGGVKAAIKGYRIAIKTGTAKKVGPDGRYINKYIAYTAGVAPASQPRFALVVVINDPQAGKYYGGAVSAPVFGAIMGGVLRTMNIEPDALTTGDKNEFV
T3 sequence (G3XD46 50-579 limits assumed): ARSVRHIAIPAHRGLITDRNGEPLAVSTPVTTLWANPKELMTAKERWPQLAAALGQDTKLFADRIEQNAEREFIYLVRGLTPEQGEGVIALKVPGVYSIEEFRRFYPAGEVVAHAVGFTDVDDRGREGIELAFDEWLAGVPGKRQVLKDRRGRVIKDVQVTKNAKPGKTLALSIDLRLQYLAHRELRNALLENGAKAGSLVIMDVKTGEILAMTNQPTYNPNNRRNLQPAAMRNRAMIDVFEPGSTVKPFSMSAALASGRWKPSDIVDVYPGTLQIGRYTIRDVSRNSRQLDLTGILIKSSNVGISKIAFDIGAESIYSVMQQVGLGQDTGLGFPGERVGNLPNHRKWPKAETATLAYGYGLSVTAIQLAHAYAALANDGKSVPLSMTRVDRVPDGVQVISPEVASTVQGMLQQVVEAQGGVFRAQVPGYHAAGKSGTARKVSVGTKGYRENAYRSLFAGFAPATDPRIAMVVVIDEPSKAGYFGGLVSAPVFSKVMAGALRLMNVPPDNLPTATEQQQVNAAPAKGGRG

In experiment [1], `Cc1cc(C)n2c1C=C1C=CC(CCC(=O)Nc3ccc(OCC(=O)N[C@@H]4C(=O)N5[C@@H]4SC(C)(C)[C@@H]5C(=O)O)cc3)=[N+]1[B-]2(F)F` [Bocillin] registered a Kd of 440 nM.
The molecule `CC1(C)S[C@@H]2[C@H](NC(=O)C(C(=O)O)c3ccccc3)C(=O)N2[C@H]1C(=O)O` (stereo partly drawn) [Carbenicillin, reference compound] displayed a Ki in [2] of 520 nM. Further, the MIC in experiment [3] stood at 16 µg/mL (≈ 42.3 µM); in [4] it was 14 µg/mL (≈ 37 µM); in experiment [5], 0.8 µg/mL (≈ 2.11 µM); in [6], 2.3 µg/mL (≈ 6.08 µM); in experiment [7], 16 µg/mL (≈ 42.3 µM); in [8] it was 256 µg/mL (≈ 677 µM).
In experiment [9], ACHDWDYRHLCYWRCA[Sar][Sar][Sar][Sar][Sar][Sar]K-fluorescein (linker 2-11-15 via TATA, Bicyclic peptide) [BCY9383 with fluorescein appended to the C-terminus with a Sar6-Lysine linker] displayed a Kd of 400 nM.
In [9], ACPYTSCPPHTMCA[Sar][Sar][Sar][Sar][Sar][Sar]K-fluorescein (linker 2-7-13 via TATA, Bicyclic peptide) [BCY9378 with fluorescein appended to the C-terminus with a Sar6-Lysine linker] came in with a Kd of 80 nM.

B1: BCY12130 with fluorescein appended to the C-terminus with a Sar6-Lysine linker (peptide)
peptide: ACSFPKCPWVEGCA
modifications: Ci, Cii and Ciii cyclised with TATA scaffold; fluorescein appended to the C-terminus with a Sar6-Lysine linker
notes: Bicyclic peptide
As to B1, in experiment [10], the binding result was “no binding”. The molecule further returned a Kd in experiment [11] of 2000 nM.
